This note sets out measurements from ChEMBL document CHEMBL4308869, “Towards lead compounds as anti-cancer agents via new phaeosphaeride A derivatives” (Bioorg Med Chem Lett, 2019).

Structures are written as SMILES. Where only a bound is given, the exact number is not on record here.

The test system of data set [1] is PC-3. Nature of the data set: Potency index, ratio of PPA IC50 to test compound IC50 for human PC3 cells. The data set is classed as functional.
Data set [2] deals with PC-3. Nature of the data set: Cytotoxicity against human PC3 cells after 72 hrs by MTT assay. The data set is classed as functional, cell-based. As to conditions: PC-3, 72 h. (Formazan colour is commonly taken as a measure of viable cells.)
In data set [3] the test system is A549. Nature of the data set: Cytotoxicity against human A549 cells after 72 hrs by MTT assay. It is filed as functional, cell-based. As to conditions: A549, 72 h.
Data set [4] concerns NCI-H929. Nature of the data set: Cytotoxicity against human NCI-H929 cells after 72 hrs by MTT assay. The data set is classed as functional, cell-based. The conditions noted are these: NCI-H929, 72 h.
For another data set, the system named is RPMI-8226. Nature of the data set: Cytotoxicity against human RPMI8226 cells after 72 hrs by MTT assay. It is filed as functional, cell-based. As to conditions: RPMI-8226, 72 h.
The subject of another data set is HEF. Nature of the data set: Cytotoxicity against HEF after 72 hrs by MTT assay. It is filed as cell-based. The conditions noted are these: Homo sapiens.
In a further data set the test system is THP-1. Nature of the data set: Cytotoxicity against human THP1 cells after 72 hrs by MTT assay. As to conditions: THP-1, 72 h. The data set is classed as functional, cell-based.
The test system of data set [5] is HCT-116. Nature of the data set: Cytotoxicity against human HCT116 cells after 72 hrs by MTT assay. The data set is classed as functional, cell-based. The conditions noted are these: HCT-116, 72 h.
The next data set relates to Jurkat. Nature of the data set: Cytotoxicity against human Jurkat cells after 72 hrs by MTT assay. The data set is classed as functional, cell-based.
In a further data set the test system is K562. Nature of the data set: Cytotoxicity against human K562 cells after 72 hrs by MTT assay. The data set is classed as functional, cell-based. The conditions noted are these: K562, 72 h.
The next data set relates to MCF7. Nature of the data set: Cytotoxicity against human MCF7 cells after 72 hrs by MTT assay. As to conditions: MCF7, 72 h. The data set is classed as functional, cell-based.
For data set [6], the system named is A549. Nature of the data set: Potency index, ratio of etoposide IC50 to test compound IC50 for human A549 cells. It is filed as functional.
A short description of data set [7]: Therapeutic index, ratio of IC50 for HEF to IC50 for human NCI-H929 cells. It is filed as toxicity. The conditions noted are these: HEF cells versus NCI-H929 cells, read-out: Ratio IC50.
For data set [8], the system named is NCI-H929. Nature of the data set: Potency index, ratio of PPA IC50 to test compound IC50 for human NCI-H929 cells. It is filed as functional.
The test system of data set [9] is NCI-H929. Nature of the data set: Potency index, ratio of etoposide IC50 to test compound IC50 for human NCI-H929 cells. It is filed as functional.
Data set [10] deals with A549. Nature of the data set: Potency index, ratio of PPA IC50 to test compound IC50 for human A549 cells. The data set is classed as functional.
Data set [11] is described as follows: Therapeutic index, ratio of IC50 for HEF to IC50 for human HCT116 cells. It is filed as toxicity. As to conditions: HEF cells versus HCT116 cells, read-out: Ratio IC50.
The subject of data set [12] is HCT-116. Nature of the data set: Potency index, ratio of PPA IC50 to test compound IC50 for human HCT116 cells. It is filed as functional.

Usually IC50 stands for the concentration needed to halve the response being measured. A high value points to weaker potency. Regarding `C=C1C2=C(C(=O)N1OC)[C@@H](F)[C@@](C)(O)[C@H](CCCCC)O2`, in the data set with PC-3 [1], the “Ratio IC50” value came to 3. Also, the IC50 is 12 µM in the data set on PC-3 [2]; 42 µM in the data set with A549 [3]; 3.9 µM in the data set on NCI-H929 [4]; 16 µM with RPMI-8226; 37 µM in the data set with HEF; 19 µM in the data set with THP-1. In addition, the IC50 with HCT-116 [5] stood at 31 µM; with Jurkat, 15 µM; in the data set on K562, 18 µM; with MCF7, 37 µM.
As for `C=C1C2=C(C(=O)N1OC)[C@H](OC(=O)CSc1nc3ccccc3s1)[C@@](C)(O)[C@H](CCCCC)O2`, the half-inhibitory concentration (IC50) with PC-3 [2] worked out at 5 µM; in the data set on A549 [3], 5.9 µM; with NCI-H929 [4], 0.59 µM; in the data set with RPMI-8226, 2 µM; with HEF, 11 µM; in the data set with THP-1, 1.6 µM. In addition, the IC50 in the data set on HCT-116 [5] amounted to 4.7 µM; in the data set on Jurkat, 2.3 µM; in the data set with K562, 4.3 µM; with MCF7, 6.3 µM. In addition, the “Ratio IC50” value was 16 with A549 [6], 11 with NCI-H929 [8], 1.5 in the data set with NCI-H929 [9] and 7 in the data set with A549 [10]. In addition, in data set [7], the selectivity ratio was found to be 18.6.
Regarding `COc1cc([C@@H]2c3cc4c(cc3[C@@H](O[C@@H]3O[C@@H]5CO[C@@H](C)O[C@H]5[C@H](O)[C@H]3O)[C@H]3COC(=O)[C@H]23)OCO4)cc(OC)c1O` [ETOPOSIDE], the IC50 with PC-3 [2] was 2.7 µM; in the data set on A549 [3], 100 µM; in the data set on NCI-H929 [4], 0.9 µM; with RPMI-8226, 4.8 µM; in the data set on HEF, greater than 100 µM; with THP-1 it was 1 µM. The half-inhibitory concentration (IC50) in the data set with HCT-116 [5] was 22 µM; in the data set on Jurkat, 1.4 µM; with K562, 9.4 µM; in the data set on MCF7, 9.6 µM.
For the molecule `C=C1C2=C(C(=O)N1OC)[C@H](OC(=O)CCCCCl)[C@@](C)(O)[C@H](CCCCC)O2`, the IC50 in the data set on PC-3 [2] came out at 9.2 µM; with A549 [3], 12 µM; in the data set with NCI-H929 [4] it was 2.5 µM; in the data set with RPMI-8226, 4.3 µM; in the data set on HEF it was 11 µM; in the data set on THP-1, 4.6 µM. The half-maximal inhibitory concentration (IC50) in the data set with HCT-116 [5] was determined as 11 µM; in the data set with Jurkat, 4.2 µM; in the data set on K562, 8.5 µM; with MCF7, 5.4 µM.
In the case of `C=C1C2=C(C(=O)N1OC)[C@H](O)[C@@](C)(O)[C@H](CCCCC)O2`, the 50% inhibitory concentration (IC50) worked out at 32 µM with PC-3 [2]; 41 µM in the data set with A549 [3]; 6.5 µM with NCI-H929 [4]; 9.3 µM in the data set with RPMI-8226; 19 µM in the data set on HEF; 19 µM with THP-1. The IC50 stood at 44 µM with HCT-116 [5], 10 µM with Jurkat, 20 µM in the data set on K562 and 20 µM with MCF7.
For the molecule `C=C1C2=C(C(=O)N1OC)[C@H](OC(=O)CCl)[C@@](C)(O)[C@H](CCCCC)O2`, the selectivity ratio in data set [11] turned out to be 3.8. For the same molecule, the 50% inhibitory concentration (IC50) in the data set with PC-3 [2] was 2.4 µM; in the data set with A549 [3], 20 µM; in the data set with NCI-H929 [4] it was 3.3 µM; in the data set with RPMI-8226 it was 9.7 µM; in the data set on HEF, 9.1 µM; in the data set on THP-1, 11 µM. For the same molecule, the IC50 in the data set on HCT-116 [5] turned out to be 2.4 µM; in the data set with Jurkat, 9.6 µM; with K562, 7 µM; with MCF7, 17 µM. Also, the “Ratio IC50” value with HCT-116 [12] turned out to be 20.
On to `C=C1C2=C(C(=O)N1OC)[C@H](OC(=O)CSc1nc3ccccc3[nH]1)[C@@](C)(O)[C@H](CCCCC)O2`, for which the concentration for half-maximal inhibition (IC50) turned out to be 6.4 µM in the data set with PC-3 [2]; 19 µM in the data set with A549 [3]; 2 µM with NCI-H929 [4]; 4.3 µM with RPMI-8226; 11 µM with HEF; 5.3 µM in the data set on THP-1. The 50% inhibitory concentration (IC50) in the data set with HCT-116 [5] was determined as 8.2 µM; in the data set with Jurkat, 8.9 µM; in the data set with K562, 9.3 µM; in the data set with MCF7 it was 16 µM.
With `C=C1C2=C(C(=O)N1OC)[C@H](OC(=O)CSc1nc3ccccc3o1)[C@@](C)(O)[C@H](CCCCC)O2`, the IC50 in the data set with PC-3 [2] came out at 5.8 µM; with A549 [3], 20 µM; in the data set on NCI-H929 [4] it was 3 µM; in the data set on RPMI-8226, 5.1 µM; in the data set with HEF, 9.3 µM; in the data set on THP-1, 2.3 µM. Besides, the IC50 in the data set with HCT-116 [5] stood at 4.9 µM; with Jurkat it was 2.6 µM; in the data set with K562, 4.5 µM; in the data set on MCF7, 3.9 µM.
